Results taken from PMC8162404, “Proteomimetic surface fragments distinguish targets by function” (Chemical Science, 2020).

How the values were obtained:
[1] = target: T1, Gal-1 (Homo sapiens, UniProt P09382); assay: Pull-down assay with immobilized protein and LSM libraries; format: binding; details: H12 library; 1:1 binding assumed; read-out: Surface mapping KD (apparent)
T1 construct: made in house; host or cells: E. coli BL21(DE3)
How it was run: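 His-tagged protein immobilized on Co-NTA resin (64 µM) in 20 mM HEPES pH 7.4, 150 mM NaCl, equilibrated 30 min at room temperature with foldamer LSM sublibraries at equimolar total concentration. Unbound fractions quantified by HPLC-MS versus protein-free resin control; apparent KD assumes 1:1 binding.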

[2] = target: T2, S100B (Homo sapiens, UniProt P04271); assay: as above; format: binding; details: H12 library; 1:1 binding assumed; read-out: Surface mapping KD (apparent)
T2 construct: made in house; host or cells: Escherichia coli BL21(DE3)
T2 sequence (P04271 1-92): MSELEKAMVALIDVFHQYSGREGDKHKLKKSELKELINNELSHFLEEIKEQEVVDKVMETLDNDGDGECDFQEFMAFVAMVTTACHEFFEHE
How it was run: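 Buffers were HEPES pH 7.4 with 150 mM NaCl, plus 1 mM TCEP and 1 mM CaCl2 (50 mM HEPES) for S100A4 and S100B, 1 mM TCEP for Gal-1, and no additive for RecQ-WH. Immobilized protein at 64 µM was equilibrated 30 min with the LSM sublibrary, and unbound probes were measured by LC-MS.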

T1 sequence (P09382 whole entry): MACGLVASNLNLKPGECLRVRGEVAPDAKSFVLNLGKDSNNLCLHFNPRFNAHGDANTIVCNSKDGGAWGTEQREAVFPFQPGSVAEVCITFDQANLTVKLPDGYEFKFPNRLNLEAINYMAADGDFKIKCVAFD

Row | SMILES | Kd [1] [µM] | Kd [2] [µM]
1 | CSCC[C@@H](CC(=O)N[C@H]1CCC[C@@H]1C(=O)N[C@H]1CCC[C@@H]1C(=O)N[C@@H](CCC(=O)O)CC(=O)N[C@H]1CCC[C@@H]1C(=O)N[C@H]1CCC[C@@H]1C(N)=O)NC(=O)[C@H]1CCC[C@@H]1NC(=O)[C@H]1CCC[C@@H]1N [H12 ME] | 180 | 417
2 | CSCC[C@@H](CC(=O)N[C@H]1CCC[C@@H]1C(=O)N[C@H]1CCC[C@@H]1C(=O)N[C@@H](CCCCN)CC(=O)N[C@H]1CCC[C@@H]1C(=O)N[C@H]1CCC[C@@H]1C(N)=O)NC(=O)[C@H]1CCC[C@@H]1NC(=O)[C@H]1CCC[C@@H]1N [H12 MK] | 172 | 78
3 | CSCC[C@@H](CC(=O)N[C@H]1CCC[C@@H]1C(=O)N[C@H]1CCC[C@@H]1C(N)=O)NC(=O)[C@H]1CCC[C@@H]1NC(=O)[C@H]1CCC[C@@H]1NC(=O)C[C@H](CCSC)NC(=O)[C@H]1CCC[C@@H]1NC(=O)[C@H]1CCC[C@@H]1N [H12 MM] | 364 | 166
4 | CSCC[C@@H](CC(=O)N[C@H]1CCC[C@@H]1C(=O)N[C@H]1CCC[C@@H]1C(=O)N[C@@H](CC(N)=O)CC(=O)N[C@H]1CCC[C@@H]1C(=O)N[C@H]1CCC[C@@H]1C(N)=O)NC(=O)[C@H]1CCC[C@@H]1NC(=O)[C@H]1CCC[C@@H]1N [H12 MN] | 195 | 177
5 | CSCC[C@@H](CC(=O)N[C@H]1CCC[C@@H]1C(=O)N[C@H]1CCC[C@@H]1C(=O)N[C@@H](CCC(N)=O)CC(=O)N[C@H]1CCC[C@@H]1C(=O)N[C@H]1CCC[C@@H]1C(N)=O)NC(=O)[C@H]1CCC[C@@H]1NC(=O)[C@H]1CCC[C@@H]1N [H12 MQ] | 173 | 192
6 | CSCC[C@@H](CC(=O)N[C@H]1CCC[C@@H]1C(=O)N[C@H]1CCC[C@@H]1C(=O)N[C@@H](CO)CC(=O)N[C@H]1CCC[C@@H]1C(=O)N[C@H]1CCC[C@@H]1C(N)=O)NC(=O)[C@H]1CCC[C@@H]1NC(=O)[C@H]1CCC[C@@H]1N [H12 MS] | 224 | 215
7 | CSCC[C@@H](CC(=O)N[C@H]1CCC[C@@H]1C(=O)N[C@H]1CCC[C@@H]1C(=O)N[C@H](CC(=O)N[C@H]1CCC[C@@H]1C(=O)N[C@H]1CCC[C@@H]1C(N)=O)[C@@H](C)O)NC(=O)[C@H]1CCC[C@@H]1NC(=O)[C@H]1CCC[C@@H]1N [H12 MT] | 169 | 162
8 | N=C(N)NCCC[C@@H](CC(=O)N[C@H]1CCC[C@@H]1C(=O)N[C@H]1CCC[C@@H]1C(N)=O)NC(=O)[C@H]1CCC[C@@H]1NC(=O)[C@H]1CCC[C@@H]1NC(=O)C[C@H](CCC(N)=O)NC(=O)[C@H]1CCC[C@@H]1NC(=O)[C@H]1CCC[C@@H]1N [H12 QR] | 431 | 321
9 | C[C@@H](CC(=O)N[C@H]1CCC[C@@H]1C(=O)N[C@H]1CCC[C@@H]1C(N)=O)NC(=O)[C@H]1CCC[C@@H]1NC(=O)[C@H]1CCC[C@@H]1NC(=O)C[C@H](CCCNC(=N)N)NC(=O)[C@H]1CCC[C@@H]1NC(=O)[C@H]1CCC[C@@H]1N [H12 RA] | 485 | 205
10 | C[C@@H](O)[C@@H](CC(=O)N[C@H]1CCC[C@@H]1C(=O)N[C@H]1CCC[C@@H]1C(N)=O)NC(=O)[C@H]1CCC[C@@H]1NC(=O)[C@H]1CCC[C@@H]1NC(=O)C[C@H](CCCNC(=N)N)NC(=O)[C@H]1CCC[C@@H]1NC(=O)[C@H]1CCC[C@@H]1N [H12 RT] | 213 | 133
11 | N=C(N)NCCC[C@@H](CC(=O)N[C@H]1CCC[C@@H]1C(=O)N[C@H]1CCC[C@@H]1C(N)=O)NC(=O)[C@H]1CCC[C@@H]1NC(=O)[C@H]1CCC[C@@H]1NC(=O)C[C@H](CO)NC(=O)[C@H]1CCC[C@@H]1NC(=O)[C@H]1CCC[C@@H]1N [H12 SR] | 402 | 123
12 | CC(C)[C@@H](CC(=O)N[C@H]1CCC[C@@H]1C(=O)N[C@H]1CCC[C@@H]1C(=O)N[C@@H](CCCCN)CC(=O)N[C@H]1CCC[C@@H]1C(=O)N[C@H]1CCC[C@@H]1C(N)=O)NC(=O)[C@H]1CCC[C@@H]1NC(=O)[C@H]1CCC[C@@H]1N [H12 VK] | 430 | 185
13 | CSCC[C@@H](CC(=O)N[C@H]1CCC[C@@H]1C(=O)N[C@H]1CCC[C@@H]1C(N)=O)NC(=O)[C@H]1CCC[C@@H]1NC(=O)[C@H]1CCC[C@@H]1NC(=O)C[C@@H](NC(=O)[C@H]1CCC[C@@H]1NC(=O)[C@H]1CCC[C@@H]1N)C(C)C [H12 VM] | 459 | 303
14 | CC(C)[C@@H](CC(=O)N[C@H]1CCC[C@@H]1C(=O)N[C@H]1CCC[C@@H]1C(=O)N[C@@H](CCCNC(=N)N)CC(=O)N[C@H]1CCC[C@@H]1C(=O)N[C@H]1CCC[C@@H]1C(N)=O)NC(=O)[C@H]1CCC[C@@H]1NC(=O)[C@H]1CCC[C@@H]1N [H12 VR] | 234 | 118
15 | CC(C)[C@@H](CC(=O)N[C@H]1CCC[C@@H]1C(=O)N[C@H]1CCC[C@@H]1C(N)=O)NC(=O)[C@H]1CCC[C@@H]1NC(=O)[C@H]1CCC[C@@H]1NC(=O)C[C@@H](NC(=O)[C@H]1CCC[C@@H]1NC(=O)[C@H]1CCC[C@@H]1N)C(C)C [H12 VV] | 439 | 277
16 | NC(=O)[C@H]1CCC[C@@H]1NC(=O)[C@H]1CCC[C@@H]1NC(=O)C[C@H](CC(=O)O)NC(=O)[C@H]1CCC[C@@H]1NC(=O)[C@H]1CCC[C@@H]1NC(=O)C[C@H](Cc1c[nH]c2ccccc12)NC(=O)[C@H]1CCC[C@@H]1NC(=O)[C@H]1CCC[C@@H]1N [H12 WD] | 297 | 199
17 | NC(=O)[C@H]1CCC[C@@H]1NC(=O)[C@H]1CCC[C@@H]1NC(=O)C[C@H](CCC(=O)O)NC(=O)[C@H]1CCC[C@@H]1NC(=O)[C@H]1CCC[C@@H]1NC(=O)C[C@H](Cc1c[nH]c2ccccc12)NC(=O)[C@H]1CCC[C@@H]1NC(=O)[C@H]1CCC[C@@H]1N [H12 WE] | 256 | 229
18 | NC(=O)C[C@@H](CC(=O)N[C@H]1CCC[C@@H]1C(=O)N[C@H]1CCC[C@@H]1C(N)=O)NC(=O)[C@H]1CCC[C@@H]1NC(=O)[C@H]1CCC[C@@H]1NC(=O)C[C@H](Cc1c[nH]c2ccccc12)NC(=O)[C@H]1CCC[C@@H]1NC(=O)[C@H]1CCC[C@@H]1N [H12 WN] | 270 | 55
19 | NC(=O)CC[C@@H](CC(=O)N[C@H]1CCC[C@@H]1C(=O)N[C@H]1CCC[C@@H]1C(N)=O)NC(=O)[C@H]1CCC[C@@H]1NC(=O)[C@H]1CCC[C@@H]1NC(=O)C[C@H](Cc1c[nH]c2ccccc12)NC(=O)[C@H]1CCC[C@@H]1NC(=O)[C@H]1CCC[C@@H]1N [H12 WQ] | 304 | 53

Next, values leading:

Row | Kd [1] [µM] | Kd [2] [µM] | SMILES
20 | 222 | 95 | C[C@@H](CC(=O)N[C@H]1CCC[C@@H]1C(=O)N[C@H]1CCC[C@@H]1C(N)=O)NC(=O)[C@H]1CCC[C@@H]1NC(=O)[C@H]1CCC[C@@H]1NC(=O)C[C@H](Cc1ccc(O)cc1)NC(=O)[C@H]1CCC[C@@H]1NC(=O)[C@H]1CCC[C@@H]1N [H12 YA]
21 | 205 | 430 | NC(=O)[C@H]1CCC[C@@H]1NC(=O)[C@H]1CCC[C@@H]1NC(=O)C[C@H](CC(=O)O)NC(=O)[C@H]1CCC[C@@H]1NC(=O)[C@H]1CCC[C@@H]1NC(=O)C[C@H](Cc1ccc(O)cc1)NC(=O)[C@H]1CCC[C@@H]1NC(=O)[C@H]1CCC[C@@H]1N [H12 YD]
22 | 198 | 459 | NC(=O)[C@H]1CCC[C@@H]1NC(=O)[C@H]1CCC[C@@H]1NC(=O)C[C@H](CCC(=O)O)NC(=O)[C@H]1CCC[C@@H]1NC(=O)[C@H]1CCC[C@@H]1NC(=O)C[C@H](Cc1ccc(O)cc1)NC(=O)[C@H]1CCC[C@@H]1NC(=O)[C@H]1CCC[C@@H]1N [H12 YE]
23 | 181 | 237 | NC(=O)C[C@@H](CC(=O)N[C@H]1CCC[C@@H]1C(=O)N[C@H]1CCC[C@@H]1C(N)=O)NC(=O)[C@H]1CCC[C@@H]1NC(=O)[C@H]1CCC[C@@H]1NC(=O)C[C@H](Cc1ccc(O)cc1)NC(=O)[C@H]1CCC[C@@H]1NC(=O)[C@H]1CCC[C@@H]1N [H12 YN]
24 | 176 | 222 | NC(=O)CC[C@@H](CC(=O)N[C@H]1CCC[C@@H]1C(=O)N[C@H]1CCC[C@@H]1C(N)=O)NC(=O)[C@H]1CCC[C@@H]1NC(=O)[C@H]1CCC[C@@H]1NC(=O)C[C@H](Cc1ccc(O)cc1)NC(=O)[C@H]1CCC[C@@H]1NC(=O)[C@H]1CCC[C@@H]1N [H12 YQ]
25 | 61 | 65 | N=C(N)NCCC[C@@H](CC(=O)N[C@H]1CCC[C@@H]1C(=O)N[C@H]1CCC[C@@H]1C(N)=O)NC(=O)[C@H]1CCC[C@@H]1NC(=O)[C@H]1CCC[C@@H]1NC(=O)C[C@H](Cc1ccc(O)cc1)NC(=O)[C@H]1CCC[C@@H]1NC(=O)[C@H]1CCC[C@@H]1N [H12 YR]
26 | 194 | 195 | NC(=O)[C@H]1CCC[C@@H]1NC(=O)[C@H]1CCC[C@@H]1NC(=O)C[C@H](CO)NC(=O)[C@H]1CCC[C@@H]1NC(=O)[C@H]1CCC[C@@H]1NC(=O)C[C@H](Cc1ccc(O)cc1)NC(=O)[C@H]1CCC[C@@H]1NC(=O)[C@H]1CCC[C@@H]1N [H12 YS]
27 | 300 | 251 | C[C@@H](O)[C@@H](CC(=O)N[C@H]1CCC[C@@H]1C(=O)N[C@H]1CCC[C@@H]1C(N)=O)NC(=O)[C@H]1CCC[C@@H]1NC(=O)[C@H]1CCC[C@@H]1NC(=O)C[C@H](Cc1ccc(O)cc1)NC(=O)[C@H]1CCC[C@@H]1NC(=O)[C@H]1CCC[C@@H]1N [H12 YT]
28 | 364 | 166 | CC(C)[C@@H](CC(=O)N[C@H]1CCC[C@@H]1C(=O)N[C@H]1CCC[C@@H]1C(N)=O)NC(=O)[C@H]1CCC[C@@H]1NC(=O)[C@H]1CCC[C@@H]1NC(=O)C[C@H](Cc1ccc(O)cc1)NC(=O)[C@H]1CCC[C@@H]1NC(=O)[C@H]1CCC[C@@H]1N [H12 YV]
